Test results reported in patent publication US5162335A, “Di- and tetrahydroisoquinoline derivatives” (Duphar International Research B.V., priority 1986, dated 1992).

What follows are molecules tested on human cell lines: breast MCF7 and HTB26, colon WIDR and HTB38, lung HTB53, melanoma HTB66, and uterus HTB114 (assay: Clonogenic assay with human cell lines (test 2)). Conditions: treatment approximately three times the cell cycle, more particularly the D-enantiomers, read-out: ID75 in the clonogenic assay (test 2).
Assay type: cell-based
Description: 2. CLONOGENIC ASSAY WITH HUMAN CELL LINES
The following human cell lines are used: breast MCF7 and HTB26, colon WIDR and HTB38, lung HTB53, melanoma HTB66, and uterus HTB114.
As comparative substances are used cisplatinum, 5-fluorouracil, daunomycine, bleomycine and adriamycine.
During providing the cells or after a pre-incubationperiod of one night, the compound to be tested is added as a solution or suspension in 0.5% CMC/saline solution in a dose range with a maximum concentration of 15 μg/ml.
The duration of the treatment is approximately three times the cell cycle. The cells are then fixed, coloured and evaluated for the presence of the colonies. The formation of colonies is expressed in the number of colonies which is present on the treated dishes as a perecentage of the number of colonies which is present on control dishes.
COc1cc([C@H]2c3ccc4ccccc4c3C[C@H]3COC(=O)N32)cc(OC)c1OC (relative stereo) [Example 81] was tested, and the IC75 was under 1 mg/L.
COc1cc([C@@H]2c3cc4c(cc3C[C@@H]3CN(C)[S+]([O-])N32)OCO4)cc(OC)c1OC (stereo partly drawn) [Example 70] was tested, and the IC75 was under 1 mg/L.
COc1cc([C@H]2N[C@@H](CO)Cc3cc4c(cc32)OCCO4)cc(OC)c1OC [Example 20] showed an IC75 of under 1 mg/L.
Molecule COc1cc([C@H]2c3c(ccc4ccccc34)C[C@H]3COC(=O)N32)cc(OC)c1OC (relative stereo) [Example 82] has an IC75 of under 1 mg/L.
For COc1cc([C@H]2N[C@@H](CO)Cc3c2ccc2ccccc32)cc(OC)c1OC (relative stereo) [Example 23], the IC75 was under 1 mg/L.
With COc1cc([C@H]2N[C@@H](C(N)=O)Cc3cc4c(cc32)OCCO4)cc(OC)c1OC [Example 110] the IC75 was under 1 mg/L.
For COc1cc([C@@H]2c3cc4c(cc3C[C@@H]3COS(=O)N32)OCO4)cc(OC)c1OC (stereo partly drawn) [Example 55], the IC75 was under 1 mg/L.
COc1cc(OC)c([C@H]2c3cc4c(cc3C[C@H]3COC(=O)N32)OCCO4)cc1OC [Example 80] gave an IC75 of under 1 mg/L.
In the case of COc1cc([C@@H]2c3cc4c(cc3C[C@@H]3COC(=O)N32)OCCO4)cc(OC)c1OC [Example 79], the IC75 was under 1 mg/L.
